From US12478677B2, “Tunable luminescent organic salts for enhanced imaging and photodynamic therapy” (BOARD OF TRUSTEES OF MICHIGAN STATE UNIVERSITY, priority 2017, dated 2025)
Entries after “also recorded” stand apart in the source; their conditions may differ.

Columns and labels:
[1] = Salt integrity and aggregation in cell media (mass spectrometry, electron microscopy, UV-Vis); assay type: physicochemical; conditions: high resolution mass spectrometry, electron microscopy, UV-Vis spectroscopy
Source text: FIGS. 7A-7C. […] Organic salts were first dissolved in DMSO and then diluted in water, forming nanoparticles. […] Combinations of H- and J-aggregation of organic salts can be seen by blue-shifted peaks (lower wavelength) and red-shifted peaks (higher wavelength), respectively. The nanoparticles with small hard anions redissolve in cell media likely due to sterics. […] This is achieved by cation-anion pairs of luminescent organic salts that can be modulated to be either non-toxic for enhanced imaging, or phototoxic for improved PDT. […] IR polymethine cyanine dyes, which have been used as effective theranostics are described. […] This is thought to occur through a mechanism mitigated by tumor vascularization, increased retention in cancer cells, and mitochondrial depolarization. Once in the cell, they accumulate in the mitochondria and lysosomes, where irradiation induces generation of cytotoxic oxygen species. A strategy is described for preventing or inhibiting salt dissociation in cells: aggregates are formed via introduction of the salt into an aqueous media by a solvent vehicle, forming particles with diameters of about 5 nm in size with no precipitation observed. […] This is confirmed by high resolution mass spectrometry, electron microscopy, and UV-Vis spectroscopy. […] Normalized absorption data are sown in FIGS. 7A, 7B, and 7C. This is likely due to steric effects, where if the counterion radius is too small it is not able to protect the nanoparticle stability. This can be characterized by the volume-averaged effective spherical radius of the counterions, where the cutoff is at about 0.275 nm.

mitochondrial superoxide = assay: MitoSOX measurement of mitochondrial superoxide; assay type: cell-based, human; conditions: A549 cells treated 4 days at phototoxic concentrations; with or without light
Source text: FIG. 22. Luminescent organic salts generate mitochondrial ROS. […] MitoSOX is used to measure mitochondrial superoxide, and H2DCFDA for general cytoplasmic ROS in A549 cell treated with organic salts at indicated phototoxic concentrations for 4 days.
Photoactive agents accumulate in the mitochondria of cancer cells and generate reactive oxygen species (ROS) with light exposure, depolarizing the mitochondrial membrane potential to cause cell death. Small molecule protective agents that quench ROS have been used to decrease their phototoxicity. However, the exact type of ROS generated by each luminescent agent remains unclear. Photo-induced ROS include singlet oxygen, superoxide radical anion, hydrogen peroxide, hydroxyl radical and others (see FIG. 21). Superoxide is a highly reactive and biologically toxic species deployed in nature to kill invading organisms. It is often formed as a byproduct of mitochondrial respiration but is typically quenched by the highly efficient superoxide dismutase. Hydroxyl radicals are also highly reactive, damaging nearly all forms of biological molecules. Unlike superoxide radical, the hydroxyl radical cannot be easily quenched naturally via enzymes, and endogenous antioxidants are typically required. Singlet oxygen is the excited state of the common triplet oxygen (O2 ground state) and is highly reactive towards organic compounds. Singlet oxygen can be eliminated in mammalian systems by antioxidants. A range of nitroxy radicals can subsequently stem from superoxide (peroxynitrite) or peroxide (nitrogen dioxide) species. […] Each luminescent cation-anion pair generates specific ROS resonant with its own energy level, and cell types can be targeted by generating the key sensitizing ROS. For example, it is expected that CyFPhB is phototoxic (see FIGS. 11A and 11B and 12A and 12B) by generating reactive oxygen species, which can be resonant with its molecular orbital energy levels (FIG. 21). […] No cytoplasmic ROS is detected using general cytoplasmic ROS probe H2DCFDA. […]

CCN1C(=CC=C2CCCC(C=CC3=[N+](CC)c4ccc5ccccc5c4C3(C)C)=C2Cl)C(C)(C)c2c1ccc1ccccc21.Fc1c(F)c(F)c([B-](c2c(F)c(F)c(F)c(F)c2F)(c2c(F)c(F)c(F)c(F)c2F)c2c(F)c(F)c(F)c(F)c2F)c(F)c1F [CyTPFB]
Integrity of salt pairing in cellular environments [1]: maintained in cellular environments | Mitochondrial superoxide / ROS generation (MitoSOX), in words (mitochondrial superoxide): generating minimal ROS even with light at high concentrations; also recorded: generating minimal superoxide even with light
